In paper PMC6792352, “Limited Chemical Structural Diversity Found to Modulate Thyroid Hormone Receptor in the Tox21 Chemical Library” (Environmental Health Perspectives, 2019) one finds CC50 data, which are given here for 67 compounds.

Where a name gives a salt, the structure may show the parent alone.

The first series in a line: in vitro. Conditions: rat, gh3-tre-luc cells, AC50 (uM) modified / 1000.
`CCCCC(CC)COP(=O)(OCC(CC)CCCC)OCC(CC)CCCC` (stereo not shown) [Tris(2-ethylhexyl) phosphate] came in with a CC50 at 24 h of more than 90 µM.

Regarding `CCCCC(CC)COC(=O)c1ccc(C(=O)OCC(CC)CCCC)c(C(=O)OCC(CC)CCCC)c1` (stereo not shown) [Tris(2-ethylhexyl) trimellitate], the CC50 at 24 h is more than 90 µM.

Compound `O=c1n(CCO)c(=O)n(CCO)c(=O)n1CCO` [Tris(2-hydroxyethyl) isocyanurate] yielded a CC50 at 24 h of more than 90 µM.

`Sc1nc(S)nc(S)n1` [Trisodium 2,4,6-trithioxo-1,3,5-triazinane-1,3,5-triide]: the CC50 at 24 h was more than 50 µM.

Compound `CC1(C)SC(C)(C)SC(C)(C)S1` [Trithioacetone] gave a CC50 at 24 h of more than 90 µM.

Turning to `CC1(C)CC/C(=C\c2ccc(Cl)cc2)C1(O)Cn1cncn1` (stereo not shown) [Triticonazole], the CC50 at 24 h is more than 90 µM.

Consider `COc1cc(C(=S)N2CCOCC2)cc(OC)c1OC` [Tritiozine], for which the CC50 at 24 h was more than 50 µM.

Regarding `COc1cc(C(=O)N2CCCCCCC2)cc(OC)c1OC` [Trocimine], the CC50 at 24 h was more than 50 µM.

In turn, `CO[C@H]1C[C@H](O[C@H]2[C@H](C)[C@@H](O[C@@H]3O[C@H](C)C[C@H](N(C)C)[C@H]3OC(C)=O)[C@@H](C)C[C@@]3(CO3)C(=O)[C@H](C)[C@@H](OC(C)=O)[C@@H](C)[C@@H](C)OC(=O)[C@@H]2C)O[C@@H](C)[C@@H]1OC(C)=O` [Troleandomycin] showed a half-maximal cytotoxic concentration (CC50) at 24 h of more than 20 µM.

Regarding `C[N+]1(C)[C@@H]2CC[C@H]1CC(OC(=O)c1c[nH]c3ccccc13)C2` (stereo partly shown) [Tropisetron methyliodide], the CC50 at 24 h is more than 50 µM.

`CN1[C@@H]2CC[C@H]1C[C@@H](OC(=O)c1c[nH]c3ccccc13)C2` [Tropisetron]: the CC50 at 24 h amounted to 23.8 µM.

In the case of `O=c1cccccc1O` [Tropolone], the CC50 at 24 h worked out at 22.1 µM.

`O=C(O[C@H]1C[C@H]2CC[C@@H](C1)[N+]21CCCC1)C(O)(c1ccccc1)c1ccccc1` [Trospium chloride] gave a CC50 at 24 h of more than 50 µM.

The compound `N[C@@H]1[C@H]2CN(c3nc4c(cc3F)c(=O)c(C(=O)O)cn4-c3ccc(F)cc3F)C[C@@H]12` [Trovafloxacin mesylate] showed a half-maximal cytotoxic concentration (CC50) at 24 h of 20.9 µM.

`Nc1ccn([C@@H]2CO[C@H](CO)O2)c(=O)n1` [Troxacitabine] gave a CC50 at 24 h of more than 50 µM.

As to `C[C@@H]1O[C@@H](OC[C@H]2O[C@@H](Oc3c(-c4ccc(OCCO)c(OCCO)c4)oc4cc(OCCO)cc(O)c4c3=O)[C@H](O)[C@@H](O)[C@@H]2O)[C@H](O)[C@H](O)[C@H]1O` [Troxerutin], the CC50 at 24 h is more than 50 µM.

Consider `COc1cc(C(=O)NC2CCCNC2)cc(OC)c1OC` (stereo not shown) [Troxipide], for which the CC50 at 24 h was more than 50 µM.

Compound `CC(C)(C)NCC(O)c1ccccc1Cl` (stereo not shown) [Tulobuterol hydrochloride] showed a CC50 at 24 h of more than 50 µM.

For the compound `CC[C@H]1OC(=O)C[C@@H](O)[C@H](C)[C@@H](O[C@@H]2O[C@H](C)[C@@H](O[C@H]3C[C@@](C)(O)[C@@H](O)[C@H](C)O3)[C@H](N(C)C)[C@H]2O)[C@@H](CC=O)C[C@@H](C)C(=O)/C=C/C(C)=C/[C@@H]1CO[C@@H]1O[C@H](C)[C@@H](O)[C@@H](OC)[C@H]1OC` [Tylosin tartrate], the CC50 at 24 h is more than 50 µM.

On to `NCCc1ccc(O)cc1` [Tyramine hydrochloride], for which the CC50 at 24 h is more than 90 µM.

On to `CC(C)C[C@@H]1NC(=O)[C@H](CCCN)NC(=O)[C@H](C(C)C)NC(=O)[C@H](Cc2ccc(O)cc2)N[C@@H](CCC(=O)O)C(=O)N[C@@H](CC(N)=O)C(=O)[C@@H](Cc2ccccc2)NC(=O)[C@H](Cc2ccccc2)NC(=O)[C@@H]2CCCN2C(=O)[C@@H](Cc2ccccc2)NC1=O` [Tyrothricin], for which it took 1.25 µM to reach half-maximal cytotoxicity (CC50 at 24 h). This lies in the single-digit micromolar range.

`N#CC(C#N)=Cc1ccc(O)c(O)c1` [Tyrphostin 23]: the midpoint of cytotoxicity, the CC50 at 24 h, lay at 16.8 µM.

`N#CC(C#N)=Cc1cc(O)c(O)c(O)c1` [Tyrphostin 25]: it took 28.5 µM to reach half-maximal cytotoxicity (CC50 at 24 h). This CC50 at 24 h lies about 1.7-fold higher than the previous one.

The compound `Cc1c(-c2cccnc2)c2ccccc2n1CCCCC(=O)O` [UK-156819] showed a CC50 at 24 h of more than 90 µM.

As for `COCc1nnc(-c2ccc[n+]([O-])c2)n1-c1c(Cl)c(Cl)cc2[nH]c(=O)c(=O)[nH]c12` [UK-333747], the CC50 at 24 h was more than 90 µM.

Compound `CN(C[C@@H](CC[N+]12CCC(C3CCCCC3)(CC1)CC2)c1ccc(Cl)c(Cl)c1)C(=O)c1cc(C(F)(F)F)cc(C(F)(F)F)c1` [UK-337312] registered a CC50 at 24 h of 17 µM. That is a double-digit micromolar value.

As to `CCCOc1ccc(S(=O)(=O)N2CCN(CC)CC2)cc1-c1nc2c(CC)n(Cc3ccccn3)nc2c(=O)[nH]1` [UK-343664], the half-maximal cytotoxic concentration (CC50) at 24 h was more than 90 µM.

`CN[C@H]1CC[C@@H](c2ccc(Cl)c(Cl)c2)c2ccc(S(N)(=O)=O)cc21` [UK-373911] showed a CC50 at 24 h of 4.55 µM. This counts as single-digit micromolar.

On to `CSc1ccc(Oc2ccc(S(N)(=O)=O)cc2CN(C)C)cc1C` [UK-416244], for which the CC50 at 24 h amounted to 36.3 µM.

On to `CC(C)C[C@H](NC(=O)[C@@H](O)[C@H](N)Cc1ccccc1)C(=O)O` [Ubenimex hydrochloride], for which the CC50 at 24 h is 1.62 µM.

`COC1=C(OC)C(=O)C(C/C=C(\C)CC/C=C(\C)CC/C=C(\C)CC/C=C(\C)CC/C=C(\C)CC/C=C(\C)CC/C=C(\C)CC/C=C(\C)CC/C=C(\C)CCC=C(C)C)=C(C)C1=O` [Ubidecarenone] came in with a CC50 at 24 h of more than 50 µM.

As to `O=C(Nc1ccc(/C=C/c2ccc(NC(=O)c3cc(S(=O)(=O)O)c4cccnc4c3O)cc2S(=O)(=O)O)c(S(=O)(=O)O)c1)c1cc(S(=O)(=O)O)c2cccnc2c1O` [Ubistatin A], the CC50 at 24 h is more than 50 µM.

On to `C=CCCCCCCCCC=O` [Undec-10-enal], for which the CC50 at 24 h was more than 90 µM.

Consider `CCCCCCCCCCC=O` [Undecanal], for which the cytotoxic concentration (CC50) at 24 h was more than 90 µM.

Compound `CCCCCCCCCCC` [Undecane] gave a CC50 at 24 h of more than 90 µM.

In the case of `O=C(O)CCCCCCCCCC(=O)O` [Undecanedioic acid], the CC50 at 24 h was more than 90 µM.

`CCCCCCCCCCC(=O)O` [Undecanoic acid] displayed a CC50 at 24 h of more than 90 µM.

In turn, `CCCCCCC1CCCC(=O)O1` (stereo not shown) [Undecanoic delta-lactone] came in with a CC50 at 24 h of more than 90 µM.

Consider `CCCCCCCC(=O)CC[C@@H]1[C@@H](C/C=C\CCCC(=O)OC(C)C)[C@@H](O)C[C@H]1O` [Unoprostone isopropyl ester], for which the CC50 at 24 h was 18 µM.

On to `Oc1ncc(N(CCCl)CCCl)c(O)n1` [Uracil mustard], for which the CC50 at 24 h is more than 50 µM.

As for `O=c1cc[nH]c(=O)[nH]1` [Uracil], the CC50 at 24 h is more than 90 µM.

Compound `COc1ccccc1N1CCN(CCCNc2cc(=O)n(C)c(=O)n2C)CC1` [Urapidil] displayed a CC50 at 24 h of more than 50 µM.

Turning to `NC(N)=O` [Urea], the CC50 at 24 h is more than 100 µM.

`CCOC(N)=O` [Urethane] registered a CC50 at 24 h of more than 100 µM.

`O=c1ccn(C2OC(COP(=O)(O)OC3C(CO)OC(n4ccc(=O)[nH]c4=O)C3O)C(O)C2O)c(=O)[nH]1` (stereo not shown) [Uricase from Bacillus fastidiosus] yielded a CC50 at 24 h of more than 50 µM.

Take `O=C(O)/C=C/c1c[nH]cn1` [Urocanic acid]: the CC50 at 24 h was more than 90 µM.

As to `CC(C)[C@H](N)C(=O)OCCOCn1cnc2c(=O)[nH]c(N)nc21` [Valacyclovir hydrochloride], the CC50 at 24 h was more than 50 µM.

For `Cc1onc(-c2ccccc2)c1-c1ccc(S(N)(=O)=O)cc1` [Valdecoxib], the CC50 at 24 h was more than 50 µM.

The compound `C=C(C)[C@@H]1CCC2=CCC[C@@H](C)[C@]2(C)C1` [Valencene] gave a CC50 at 24 h of more than 90 µM.

In turn, `CC1=C2[C@H](/C=C(\C)C(=O)O)CC[C@@H](C)[C@H]2CC1` [Valerenic acid] had a CC50 at 24 h of more than 100 µM.

Regarding `CCCCC#N` [Valeronitrile], the CC50 at 24 h is more than 90 µM.

In turn, `CCCCC(=O)Cl` [Valeryl chloride] had a half-maximal cytotoxic concentration (CC50) at 24 h of more than 90 µM.

The compound `CC(C)[C@H](N)C(=O)OCC(CO)OCn1cnc2c(=O)nc(N)[nH]c21` (stereo partly shown) [Valganciclovir hydrochloride] returned a CC50 at 24 h of more than 50 µM.

As to `C=C[C@]1(C)C[C@@H](OC(=O)CSC(C)(C)CNC(=O)[C@H](N)C(C)C)[C@]2(C)[C@H](C)CC[C@]3(CCC(=O)[C@H]32)[C@@H](C)[C@@H]1O` [Valnemulin], the CC50 at 24 h turned out to be 2.37 µM.

`CCCC(CCC)C(=O)O` [Valproic acid]: the CC50 at 24 h is more than 90 µM.

Regarding `CCCC(CCC)C(N)=O` [Valpromide], the CC50 at 24 h was more than 50 µM.

`CCCCC(=O)OCC(=O)[C@]1(O)Cc2c(O)c3c(c(O)c2[C@@H](O[C@H]2C[C@H](NC(=O)C(F)(F)F)[C@H](O)[C@H](C)O2)C1)C(=O)c1c(OC)cccc1C3=O` [Valrubicin] had a CC50 at 24 h of 8.11 µM.

`CCCCC(=O)N(Cc1ccc(-c2ccccc2-c2nnn[nH]2)cc1)[C@H](C(=O)O)C(C)C` [Valsartan] came in with a CC50 at 24 h of more than 50 µM.

With `CN[C@H](CC(C)C)C(=O)N[C@H]1C(=O)N[C@@H](CC(N)=O)C(=O)N[C@H]2C(=O)N[C@H]3C(=O)N[C@H](C(=O)N[C@H](C(=O)O)c4cc(O)cc(O)c4-c4cc3ccc4O)[C@H](O)c3ccc(c(Cl)c3)Oc3cc2cc(c3O[C@@H]2O[C@H](CO)[C@@H](O)[C@H](O)[C@H]2O[C@H]2C[C@](C)(N)[C@H](O)[C@H](C)O2)Oc2ccc(cc2Cl)[C@H]1O` [Vancomycin hydrochloride], the CC50 at 24 h was more than 50 µM.

On to `COc1cc2c(Nc3ccc(Br)cc3F)ncnc2cc1OCC1CCN(C)CC1` [Vandetanib], for which it took 3.74 µM to reach half-maximal cytotoxicity (CC50 at 24 h).

`COc1cc(C=O)ccc1OC(=O)C(C)C` [Vanillin isobutyrate] registered a CC50 at 24 h of more than 90 µM.

As for `COc1cc(C(=S)N2CCOCC2)ccc1O` [Vanitiolide], the CC50 at 24 h was more than 50 µM.

For `O=C(O)CC/C=C\CC[C@@H]1[C@@H](N2CCCCC2)[C@@H](O)C[C@@H]1OCc1ccc(-c2ccccc2)cc1` [Vapiprost hydrochloride], the CC50 at 24 h is more than 50 µM.

`CCCc1nc(C)c2c(=O)[nH]c(-c3cc(S(=O)(=O)N4CCN(CC)CC4)ccc3OCC)nn12` [Vardenafil citrate]: the CC50 at 24 h was more than 50 µM.

`c1cnc2cc3c(cc2n1)[C@@H]1CNC[C@H]3C1` [Varenicline tartrate] came in with a CC50 at 24 h of more than 50 µM.

Still in this series, the particulars now being: rat, gh3-tre-luc cells, AC50 (uM) modified / 1000, Tox21_110001=Tox21_202725; viability, 1 nM T3 present, 24 h.
`CN1[C@@H]2CC[C@H]1CC(O)C2` (stereo partly shown) [Tropine] yielded a CC50 at 24 h of more than 100 µM.

The series is the same for the next values; noted with them: rat, gh3-tre-luc cells, AC50 (uM) modified / 1000, Tox21_110001=Tox21_302421; viability, 1 nM T3 present, 24 h.
With `CC(Cl)COP(=O)(OCC(C)Cl)OCC(C)Cl` (stereo not shown) [Tris(2-chloropropyl) phosphate], the 50% cytotoxic concentration (CC50) at 24 h was more than 90 µM.

The CC50 is the concentration giving 50% cytotoxicity. Read a high CC50 as lower toxicity to the cells.
